According to patent US10358434B2, “2-(3-pyridinyl)-1H-benzimidazole derivative compound and medicament containing same” (NIHON MEDI-PHYSICS CO., LTD., priority 2014, dated 2019):

Experiments:
[1] = In vivo kinetics experiment (radioactivity distribution); parameters: species or system Wistar male rat; details: rat i.v., mean ± SD
In short: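 Tissue radioactivity (% ID/g) and adrenal-to-blood, liver, kidney, small intestine, muscle and fat ratios determined at 10, 30 and 60 min post-dose. Tracers (approximately 1 to 3.7 MBq, saline with 1 w/v % ascorbic acid) injected i.v. into caudal vein of anesthetized 9-week male Wistar rats; organs excised, weighed, counted.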

[2] = Plasma stability evaluation (TLC analysis); format: in vitro ADME; details: 37° C., 60 minutes, TLC analysis
In short: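 TLC analysis, using each compound's synthesis conditions, judged stability after methanol was added and samples were centrifuged to remove protein. Beforehand, each tracer had spent 60 minutes at 37° C in pooled heparinized normal human plasma.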

[3] = system: human adrenal gland section expressing aldosterone-producing adenoma; assay: In vitro autoradiography using human adrenal adenoma; format: binding; details: section of FIG. 17(b)
In short: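 Autoradiography readout: PSL in equal-sized ROIs over adenoma (B2) and normal adrenal cortex (B1), expressed as B2/B1 and decay-corrected using half-life, applied activity and plate contact time. Tissue was surgically excised human adrenal, frozen and cut at 7 μm, incubated 10 min with 5-33 kBq/mL tracer in BSA-containing PBS, then imaged after 16-20 h exposure.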

For CCn1c(-c2cncc(Cn3ccnc3)c2)nc2ccc([123I])cc21 [[^123I] 608, 2-[5-{(1H-imidazol-1-yl)methyl}pyridin-3-yl]-1-ethyl-6-[^123I]iodo-1H-benzo[d]imidazole], the “Adrenal gland/blood ratio of radioactivity accumulation” value (“Adrenal gland/blood ratio” below) ([1]; 10 min after administration) was 75.29 ± 24.87, the “Adrenal gland/fat ratio of radioactivity accumulation” value (“Adrenal gland/fat ratio” for short) ([1]; 10 min after administration) was 90.02 ± 14.66 and the “Adrenal gland/kidney ratio of radioactivity accumulation” value (“Adrenal gland/kidney ratio” below) ([1]; 10 min after administration) was 4.95 ± 1.61. For the same molecule, the “Adrenal gland/liver ratio of radioactivity accumulation” value (from here on “Adrenal gland/liver ratio”) ([1]; 10 min after administration) was 2.86 ± 0.42, the “Adrenal gland/muscle ratio of radioactivity accumulation” value (from here on “Adrenal gland/muscle ratio”) ([1]; 10 min after administration) was 57.35 ± 15.85 and the “Adrenal gland/small intestine ratio of radioactivity accumulation” value (shortened to “Adrenal gland/small intestine ratio”) ([1]; 10 min after administration) was 5.04 ± 0.35. The “Radioactivity distribution Adrenal gland” value ([1]; 10 min after administration) was 8.76 ± 2.34 % ID/g, the “Radioactivity distribution Bladder (including urine)” value (“Radioactivity distribution Bladder” for short) ([1]; 10 min after administration) was 0.82 ± 0.43 % ID/g and the “Radioactivity distribution Blood” value ([1]; 10 min after administration) was 0.12 ± 0.01 % ID/g. For the same molecule, the “Radioactivity distribution Fat” value ([1]; 10 min after administration) was 0.10 ± 0.01 % ID/g, the “Radioactivity distribution Femur” value ([1]; 10 min after administration) was 0.82 ± 0.05 % ID/g and the “Radioactivity distribution Heart” value ([1]; 10 min after administration) was 0.74 ± 0.09 % ID/g. For the same molecule, the “Radioactivity distribution Kidney” value ([1]; 10 min after administration) was 1.79 ± 0.11 % ID/g, the “Radioactivity distribution Large intestine” value ([1]; 10 min after administration) was 0.12 ± 0.01 % ID/g and the “Radioactivity distribution Liver” value ([1]; 10 min after administration) was 3.03 ± 0.36 % ID/g. The “Radioactivity distribution Lung” value ([1]; 10 min after administration) was 1.11 ± 0.11 % ID/g, the “Radioactivity distribution Muscle (lower limbs)” value ([1]; 10 min after administration) was 0.15 ± 0.00 % ID/g and the “Radioactivity distribution Remaining whole body” value ([1]; 10 min after administration) was 0.29 ± 0.05 % ID/g. The “Radioactivity distribution Small intestine” value ([1]; 10 min after administration) was 1.74 ± 0.42 % ID/g, the “Radioactivity distribution Spleen” value ([1]; 10 min after administration) was 3.79 ± 1.44 % ID/g and the “Radioactivity distribution Stomach” value ([1]; 10 min after administration) was 0.53 ± 0.16 % ID/g. For the same molecule, the “Radioactivity distribution Testis” value ([1]; 10 min after administration) was 0.07 ± 0.01 % ID/g, the “Radioactivity distribution Whole brain” value ([1]; 10 min after administration) was 0.03 ± 0.01 % ID/g and the “Adrenal gland/blood ratio” value ([1]; 30 min after administration) was 172.72 ± 25.00. For the same molecule, the “Adrenal gland/fat ratio” value ([1]; 30 min after administration) was 103.83 ± 16.66, the “Adrenal gland/kidney ratio” value ([1]; 30 min after administration) was 5.90 ± 0.47 and the “Adrenal gland/liver ratio” value ([1]; 30 min after administration) was 10.03 ± 1.46. The “Adrenal gland/muscle ratio” value ([1]; 30 min after administration) was 65.62 ± 16.66, the “Adrenal gland/small intestine ratio” value ([1]; 30 min after administration) was 3.39 ± 0.42 and the “Radioactivity distribution Adrenal gland” value ([1]; 30 min after administration) was 10.75 ± 1.11 % ID/g. For the same molecule, the “Radioactivity distribution Bladder” value ([1]; 30 min after administration) was 2.70 ± 1.51 % ID/g, the “Radioactivity distribution Blood” value ([1]; 30 min after administration) was 0.06 ± 0.01 % ID/g and the “Radioactivity distribution Fat” value ([1]; 30 min after administration) was 0.10 ± 0.01 % ID/g. For the same molecule, the “Radioactivity distribution Femur” value ([1]; 30 min after administration) was 1.17 ± 0.02 % ID/g, the “Radioactivity distribution Heart” value ([1]; 30 min after administration) was 0.76 ± 0.16 % ID/g and the “Radioactivity distribution Kidney” value ([1]; 30 min after administration) was 1.82 ± 0.08 % ID/g. For the same molecule, the “Radioactivity distribution Large intestine” value ([1]; 30 min after administration) was 0.11 ± 0.00 % ID/g, the “Radioactivity distribution Liver” value ([1]; 30 min after administration) was 1.08 ± 0.13 % ID/g and the “Radioactivity distribution Lung” value ([1]; 30 min after administration) was 1.14 ± 0.08 % ID/g. For the same molecule, the “Radioactivity distribution Muscle (lower limbs)” value ([1]; 30 min after administration) was 0.17 ± 0.03 % ID/g, the “Radioactivity distribution Remaining whole body” value ([1]; 30 min after administration) was 0.30 ± 0.00 % ID/g and the “Radioactivity distribution Small intestine” value ([1]; 30 min after administration) was 3.18 ± 0.18 % ID/g. For the same molecule, the “Radioactivity distribution Spleen” value ([1]; 30 min after administration) was 4.81 ± 0.73 % ID/g, the “Radioactivity distribution Stomach” value ([1]; 30 min after administration) was 1.34 ± 0.66 % ID/g and the “Radioactivity distribution Testis” value ([1]; 30 min after administration) was 0.11 ± 0.00 % ID/g. The “Radioactivity distribution Whole brain” value ([1]; 30 min after administration) was 0.02 ± 0.00 % ID/g, the “Adrenal gland/blood ratio” value ([1]; 60 min after administration) was 345.58 ± 116.00 and the “Adrenal gland/fat ratio” value ([1]; 60 min after administration) was 158.96 ± 131.25. The “Adrenal gland/kidney ratio” value ([1]; 60 min after administration) was 10.46 ± 6.81, the “Adrenal gland/liver ratio” value ([1]; 60 min after administration) was 25.91 ± 10.25 and the “Adrenal gland/muscle ratio” value ([1]; 60 min after administration) was 113.23 ± 76.79. The “Adrenal gland/small intestine ratio” value ([1]; 60 min after administration) was 3.39 ± 1.14, the “Radioactivity distribution Adrenal gland” value ([1]; 60 min after administration) was 15.22 ± 7.58 % ID/g and the “Radioactivity distribution Bladder” value ([1]; 60 min after administration) was 2.67 ± 0.43 % ID/g. The “Radioactivity distribution Blood” value ([1]; 60 min after administration) was 0.04 ± 0.01 % ID/g, the “Radioactivity distribution Fat” value ([1]; 60 min after administration) was 0.11 ± 0.04 % ID/g and the “Radioactivity distribution Femur” value ([1]; 60 min after administration) was 1.28 ± 0.07 % ID/g. For the same molecule, the “Radioactivity distribution Heart” value ([1]; 60 min after administration) was 0.72 ± 0.09 % ID/g, the “Radioactivity distribution Kidney” value ([1]; 60 min after administration) was 1.55 ± 0.21 % ID/g and the “Radioactivity distribution Large intestine” value ([1]; 60 min after administration) was 0.16 ± 0.07 % ID/g. For the same molecule, the “Radioactivity distribution Liver” value ([1]; 60 min after administration) was 0.57 ± 0.06 % ID/g, the “Radioactivity distribution Lung” value ([1]; 60 min after administration) was 0.94 ± 0.08 % ID/g and the “Radioactivity distribution Muscle (lower limbs)” value ([1]; 60 min after administration) was 0.15 ± 0.03 % ID/g. For the same molecule, the “Radioactivity distribution Remaining whole body” value ([1]; 60 min after administration) was 0.28 ± 0.01 % ID/g, the “Radioactivity distribution Small intestine” value ([1]; 60 min after administration) was 4.35 ± 0.69 % ID/g and the “Radioactivity distribution Spleen” value ([1]; 60 min after administration) was 4.13 ± 1.21 % ID/g. For the same molecule, the “Radioactivity distribution Stomach” value ([1]; 60 min after administration) was 1.15 ± 0.26 % ID/g, the “Radioactivity distribution Testis” value ([1]; 60 min after administration) was 0.09 ± 0.01 % ID/g and the “Radioactivity distribution Whole brain” value ([1]; 60 min after administration) was 0.02 ± 0.00 % ID/g. The “Radiochemical purity after incubation in human plasma” value [2] was 88%, the B2/B1 accumulation ratio [3] was 1.08 and the “B2 (PSL value, aldosterone-producing adenoma)” value ([3]; site 71b) was 3580. For the same molecule, the “B1 (PSL value, normal adrenal cortex)” value ([3]; site 72b) was 3303.
